Counter-ions that a name gives are not always drawn.
Key:
Assay type in all cases: cell-based, human
[1] = system: bradykinin-evoked Ca^2+ signals in hBASMCs; test: Bradykinin-evoked Ca2+ signals in populations of fluo-4-loaded hBASMCs; settings: cells treated with PTX 100 ng·mL^−1, 24 h; HBS
Description: Two methods were used to measure [Ca^2+]i in populations of hBASMCs. For measurements using a FlexStation III plate-reader (Molecular Devices, Sunnyvale, CA, USA), hBASMCs were seeded into 96-well plates (10^4 cells per well). After about 4 days, when the cells were confluent, the medium was replaced with SMGM-2 without serum or growth factor supplements, and the cells were used after a further 24 h. […] Cells were washed with HEPES-buffered saline (HBS: 135 mM NaCl, 5.9 mM KCl, 1.2 mM MgCl2, 1.5 mM CaCl2, 11.6 mM HEPES, 11.5 mM D-glucose, pH 7.3), and loaded with fluo-4 by incubation with fluo-4-AM (2 μM) in HBS (100 μL per well) containing pluronic F127 (0.02%, v/v) and probenecid (2.5 mM). After 1 h at 20 °C, the medium was replaced with HBS (100 μL per well) containing probenecid (2.5 mM). After a further incubation at 20 °C for 1 h, the medium was replaced with HBS (60–80 μL per well) or nominally Ca^2+-free HBS, and the cells were used immediately for experiments at 20 °C. […] Drug additions (20 μL at 4 or 5 times the final concentration) were added automatically. Fluorescence from fluo-4 (excitation 485 nm, emission 525 nm) was recorded at 1.44-s intervals using Softmax Pro 5.4 (Molecular Devices). Fluorescence was calibrated to [Ca^2+]i from: [Ca^2+]i=KDCa×(F−Fmin/Fmax−F) where, KDCa is the equilibrium dissociation constant of fluo-4 for Ca^2+ (345 nM), F is the recorded fluorescence, and Fmin and Fmax are the fluorescence values recorded after addition of triton-X-100 (0.1%, v/v) with either BAPTA (10 mM, Fmin) or CaCl2 (10 mM, Fmax). […] Fmax was determined for each well at the end of an experiment, and the average value was used for each column of 8 wells. Fmin was determined from parallel wells on each plate.
For measurements of [Ca^2+]i using an FDSS 7000 FLIPR (Hamamatsu), hBASMCs were seeded into 384-well plates (8000 cells per well) in 20 μL of SMGM-2 containing 5% serum. […] The exact composition of this ‘no-wash’ indicator kit is not disclosed by the manufacturer, but it contains fluo-4-AM and components that reduce background fluorescence. […]

[2] = system: intracellular Ca^2+ stores of hBASMCs; test: Ca2+ content of intracellular stores, by ionomycin in Ca2+-free HBS; settings: isoproterenol, forskolin 10 μM, 5 min, 2-APB 5 min, higher concentrations needed than for inhibition of GPCR-evoked signals
[3] = system: intracellular cAMP in hBASMCs; test: Intracellular cAMP in hBASMCs by mass spectrometry
Description: These methods were modified from. Confluent cultures of hBASMCs in 48-well plates were serum-deprived (6–24 h) and the medium was then replaced with HBSS (300 μL) containing HEPES (5 mM) and BSA (0.1%, w/v). Cells were stimulated at 20 °C, and reactions were terminated by aspiration of the medium and addition of acetonitrile (170 μL) containing dibutyryl cAMP (0.5 μM, to provide an internal standard). The plates were centrifuged (1500 xg, 15 min, 4 °C), supernatants (158 μL) were transferred to a 96-well, glass-coated plate (Thermo Scientific), and aqueous NH4HCO3 (pH 9.4, 93 μL) was added to each sample. After mixing and centrifugation (1500 xg, 15 min, 4 °C), samples were stored at 4 °C before analysis. Samples were analyzed by liquid chromatography tandem mass spectrometry (LC–MS/MS) using a Waters Acquity UPLC and a Sciex 5500 mass spectrometer equipped with an electrospray ionization source. ATP, ADP, AMP and cAMP were analyzed using a ZIC-pHILIC polymeric column (5-μm particle size, […]) maintained at 35 °C. Calibration standards were prepared in the lysis medium containing the internal standard, dibutyryl cAMP (0.5 μM). […] Samples were detected using multiple reaction monitoring in negative ion mode using the following parent-to-daughter mass transitions: cAMP m/z 327.9 → 133.9 (DP −100 V, CE −33 eV), AMP m/z 345.9 → 134.0 (DP −100 V, CE −50 eV), ADP m/z 426.0 → 134.0 (DP −100 V, CE −30 eV), ATP m/z 505.9 → 408.0 (DP −100 V, CE −35 eV), and internal standard dibutyryl cAMP m/z 468.1 → 175.0 (DP −100 V, CE −35 eV). Concentration-effect relationships were fitted to logistic equations for each experiment using GraphPad Prism (version 5, GraphPad Software, La Jolla, CA, USA), from which half-maximally effective drug concentrations (EC50), maximal responses, and Hill slopes were determined. For statistical analyses, maximal responses, Hill slopes and pEC50 (-logEC50) or pIC50 (-log of the half-maximal inhibitory concentration, IC50) values determined for individual experiments were pooled for statistical analysis. […]

## CC(C)NC[C@H](O)c1ccc(O)c(O)c1 [isoproterenol, (−)-isoproterenol hydrochloride]
[1]
  effect on the Ca2+ signals evoked by bradykinin after pertussis toxin: remained insensitive to isoproterenol
[2]
  effect on the Ca2+ content of the intracellular stores: Neither isoproterenol nor forskolin (10 μM, 5 min) affected
[3]; Homo sapiens, 5 min, MS analyses, n = 3, read-out: pEC50 for cAMP accumulation (converted)
  EC50: 132 nM
[3]; isoproterenol (5 min) vs IBMX (20 min), histamine 10 μM, cAMP by MS
  intracellular cAMP associated with matched inhibition of Ca2+ signals, relative to IBMX: ~5.4 fold

From paper PMC5893132, “Selective inhibition of histamine-evoked Ca^2+ signals by compartmentalized cAMP in human bronchial airway smooth muscle cells” (Cell Calcium, 2018)
